Laboratory results published in patent US20230248626A1, “Compositions Comprising (Bio)-Alkanediols” (Symrise AG, priority 0001, published 2023).
Read-outs that look alike come from different tables or passages of the source.

Tests used:
Format in all cases: cell-based
Aspergillus brasiliensis = experiment: MIC and Kull synergy index of 1,2-/2,3-alkanediol mixtures
Escherichia coli (EC) = experiment: Preservation efficacy test (PET), European Pharmacopoeia 5.1.3
Procedure, shortened: (§1)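 Preparations challenged with prescribed inoculums per European Pharmacopoeia 5.1.3, counting microorganisms after the prescribed time. Adequate preservation means a significant fall or no increase in counts.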

[1] = system: Pseudomonas aeruginosa (PA); experiment: as above
Procedure, shortened: as §1

[2] = system: Staphylococcus aureus (SA); experiment: as above
Procedure, shortened: as §1

human sebaceous glands = experiment: Sebum production of micro-dissected, cultured human sebaceous glands (lipids/proteins after six days); design: sebum reduction: concentration or dose not given beside the values; settings: compared to untreated control; six days; single donor (FIG. 4)
Procedure: Additional tests were performed with human sebaceous glands in order to verify the modulatory activity of different 1,2-alkanediols and 2,3-alkanediols on sebum secretion. Several microbial species on the skin are lipid dependent and feed on the human sebum (e.g. Corynebacterium, Propionibacterium). Accordingly, sebum reduction can indirectly support the reduction of microorganisms on the skin and in this way also indirectly support e.g. dandruff or acne reduction.
For these experiments sebaceous glands had been micro-dissected and cultured with medium. The medium without any supplement served as untreated control. Medium with 5 μM Capsaicin served as positive control. Additionally, culture medium was supplemented with different concentrations of alkanediols. After six days the sebaceous glands were collected and lipids and proteins quantified. The total lipid amount being representative of sebum production was obtained by normalizing the quantified lipids upon the quantified proteins (i.e. mg of lipids/mg of proteins).

[3] = system: reactive oxygen species (ROS) on ex vivo skin; experiment: DCF assay, ROS score on ex vivo skin, aqueous/alcoholic (ethanolic) test system; settings: vehicle (EtOH/H2O) plus alkanediol only
Procedure: A dichlorofluorescein test (DCF) assay was performed in order to determine the amount of reactive oxygen species (ROS) on ex vivo skin treated with different test samples in a lipophilic or an aqueous/alcoholic system as described below.
DCF assay—assay principle: Ex vivo skin was incubated with 2′,7′-dichlorodihydrofluorescein diacetate at 37° C., 5% CO2. After PBS washing, samples were exposed or not to cumene hydroperoxide. Immediately after exposure, ex vivo skin samples were frozen in liquid nitrogen and 5 μm cryostat sections were made and fixed with acetone to allow the visualisation of fluorescence generated by ROS in cells of the reconstructed skins. The resulting fluorescence was measured at EX/EM 504/524 nm. Green fluorescence was quantified in ex vivo skin using ImageJ software. The depth of immunostaining was measured as follows: green DCFH-DE positive cells were automatically detected using Histolab software and the distance between dermal epidermal junction and the deepest positive cells were measured in each condition. Means were compared using a student's test. […]
The image acquisition was performed by using Olympus BX51 microscope and Olympus DP70 camera. For each skin sample two skin sections have been taken and the related fluorescent images acquired and analyzed. Thus, for each test condition, 12 images have been acquired and analyzed (i.e. 12 data). […]

What does the source list for CCCCCC(O)CO (stereo not shown) [1,2-heptanediol]?
MIC (Aspergillus brasiliensis; single 1,2-alkanediol, read-out: MIC Component A): 5000 µg/mL; number of microorganisms after 2 days (Escherichia coli (EC); 0.1% in shampoo): 2,100,000; number of microorganisms after 7 days (Escherichia coli (EC); 0.1% in shampoo): 1,400,000; number of microorganisms after 14 days (Escherichia coli (EC); 0.1% in shampoo): 200,000; number of microorganisms after 28 days (Escherichia coli (EC); 0.1% in shampoo): 1; number of microorganisms after 2 days (Escherichia coli (EC); 0.2% in o/w emulsion): 38,000; number of microorganisms after 7 days (Escherichia coli (EC); 0.2% in o/w emulsion): 73; number of microorganisms after 14 days (Escherichia coli (EC); 0.2% in o/w emulsion): 1; number of microorganisms after 28 days (Escherichia coli (EC); 0.2% in o/w emulsion): 1; number of microorganisms after 2 days (Escherichia coli (EC); 0.4% in o/w emulsion): 23,000; number of microorganisms after 7 days (Escherichia coli (EC); 0.4% in o/w emulsion): 4,100; number of microorganisms after 14 days (Escherichia coli (EC); 0.4% in o/w emulsion): 1; number of microorganisms after 28 days (Escherichia coli (EC); 0.4% in o/w emulsion): 1; number of microorganisms after 2 days ([1]; 0.1% in shampoo): 2,500; number of microorganisms after 7 days ([1]; 0.1% in shampoo): 10; number of microorganisms after 14 days ([1]; 0.1% in shampoo): 1; number of microorganisms after 28 days ([1]; 0.1% in shampoo): 1; number of microorganisms after 2 days ([1]; 0.2% in o/w emulsion): 1; number of microorganisms after 7 days ([1]; 0.2% in o/w emulsion): 1; number of microorganisms after 14 days ([1]; 0.2% in o/w emulsion): 1; number of microorganisms after 28 days ([1]; 0.2% in o/w emulsion): 1; number of microorganisms after 2 days ([1]; 0.4% in o/w emulsion): 1; number of microorganisms after 7 days ([1]; 0.4% in o/w emulsion): 1; number of microorganisms after 14 days ([1]; 0.4% in o/w emulsion): 1; number of microorganisms after 28 days ([1]; 0.4% in o/w emulsion): 1; number of microorganisms after 2 days ([2]; 0.1% in shampoo): 10; number of microorganisms after 7 days ([2]; 0.1% in shampoo): 10; number of microorganisms after 14 days ([2]; 0.1% in shampoo): 1; number of microorganisms after 28 days ([2]; 0.1% in shampoo): 1; number of microorganisms after 2 days ([2]; 0.2% in o/w emulsion): 95,000; number of microorganisms after 7 days ([2]; 0.2% in o/w emulsion): 1; number of microorganisms after 14 days ([2]; 0.2% in o/w emulsion): 1; number of microorganisms after 28 days ([2]; 0.2% in o/w emulsion): 1; number of microorganisms after 2 days ([2]; 0.4% in o/w emulsion): 15,000; number of microorganisms after 7 days ([2]; 0.4% in o/w emulsion): 2,600; number of microorganisms after 14 days ([2]; 0.4% in o/w emulsion): 1; number of microorganisms after 28 days ([2]; 0.4% in o/w emulsion): 1; sebum reduction (human sebaceous glands): 22%; antioxidative efficacy without antioxidant (in words) [3]: do not have an antioxidative efficacy

Which results are given for CCCCCC(O)C(C)O (stereo not shown) [2,3-octanediol]?
MIC (Aspergillus brasiliensis; single 2,3-alkanediol, read-out: MIC Component B): 2500 µg/mL; number of microorganisms after 2 days (Escherichia coli (EC); 0.1% in shampoo): 2,600,000; number of microorganisms after 7 days (Escherichia coli (EC); 0.1% in shampoo): 3,800,000; number of microorganisms after 14 days (Escherichia coli (EC); 0.1% in shampoo): 1,500,000; number of microorganisms after 28 days (Escherichia coli (EC); 0.1% in shampoo): 1,300,000; number of microorganisms after 2 days (Escherichia coli (EC); 0.1% in wet wipes solution): 1,300,000; number of microorganisms after 7 days (Escherichia coli (EC); 0.1% in wet wipes solution): 2,600,000; number of microorganisms after 14 days (Escherichia coli (EC); 0.1% in wet wipes solution): 850,000; number of microorganisms after 28 days (Escherichia coli (EC); 0.1% in wet wipes solution): 1,600; number of microorganisms after 2 days (Escherichia coli (EC); 0.2% in o/w emulsion): 48,000; number of microorganisms after 7 days (Escherichia coli (EC); 0.2% in o/w emulsion): 290; number of microorganisms after 14 days (Escherichia coli (EC); 0.2% in o/w emulsion): 1; number of microorganisms after 28 days (Escherichia coli (EC); 0.2% in o/w emulsion): 1; number of microorganisms after 2 days (Escherichia coli (EC); 0.4% in shampoo): 1,100,000; number of microorganisms after 7 days (Escherichia coli (EC); 0.4% in shampoo): 1,900,000; number of microorganisms after 14 days (Escherichia coli (EC); 0.4% in shampoo): 2,100,000; number of microorganisms after 28 days (Escherichia coli (EC); 0.4% in shampoo): 600,000; number of microorganisms after 2 days ([1]; 0.1% in shampoo): 280,000; number of microorganisms after 7 days ([1]; 0.1% in shampoo): 3,700,000; number of microorganisms after 14 days ([1]; 0.1% in shampoo): 13,000,000; number of microorganisms after 28 days ([1]; 0.1% in shampoo): 8,100,000; number of microorganisms after 2 days ([1]; 0.1% in wet wipes solution): 1,300,000; number of microorganisms after 7 days ([1]; 0.1% in wet wipes solution): 630,000; number of microorganisms after 14 days ([1]; 0.1% in wet wipes solution): 310,000; number of microorganisms after 28 days ([1]; 0.1% in wet wipes solution): 27,000; number of microorganisms after 2 days ([1]; 0.2% in o/w emulsion): 1; number of microorganisms after 7 days ([1]; 0.2% in o/w emulsion): 1; number of microorganisms after 14 days ([1]; 0.2% in o/w emulsion): 1; number of microorganisms after 28 days ([1]; 0.2% in o/w emulsion): 1; number of microorganisms after 2 days ([1]; 0.4% in shampoo): 21,000; number of microorganisms after 7 days ([1]; 0.4% in shampoo): 1; number of microorganisms after 14 days ([1]; 0.4% in shampoo): 1; number of microorganisms after 28 days ([1]; 0.4% in shampoo): 1; number of microorganisms after 2 days ([2]; 0.1% in shampoo): 2,000; number of microorganisms after 7 days ([2]; 0.1% in shampoo): 1; number of microorganisms after 14 days ([2]; 0.1% in shampoo): 1; number of microorganisms after 28 days ([2]; 0.1% in shampoo): 1; number of microorganisms after 2 days ([2]; 0.1% in wet wipes solution): 50; number of microorganisms after 7 days ([2]; 0.1% in wet wipes solution): 50; number of microorganisms after 14 days ([2]; 0.1% in wet wipes solution): 50; number of microorganisms after 28 days ([2]; 0.1% in wet wipes solution): 50; number of microorganisms after 2 days ([2]; 0.2% in o/w emulsion): 1,300,000; number of microorganisms after 7 days ([2]; 0.2% in o/w emulsion): 84,000; number of microorganisms after 14 days ([2]; 0.2% in o/w emulsion): 1; number of microorganisms after 28 days ([2]; 0.2% in o/w emulsion): 1; number of microorganisms after 2 days ([2]; 0.4% in shampoo): 4,000; number of microorganisms after 7 days ([2]; 0.4% in shampoo): 1; number of microorganisms after 14 days ([2]; 0.4% in shampoo): 1; number of microorganisms after 28 days ([2]; 0.4% in shampoo): 1
